This assay has as its target T1, RORγ (Homo sapiens, UniProt P51449).
T1 construct: expressed in transfected cells; host or cells: 293FT cells (Invitrogen), expression vector pFN26A (Promega)
T1 sequence (P51449 269-508 limits assumed): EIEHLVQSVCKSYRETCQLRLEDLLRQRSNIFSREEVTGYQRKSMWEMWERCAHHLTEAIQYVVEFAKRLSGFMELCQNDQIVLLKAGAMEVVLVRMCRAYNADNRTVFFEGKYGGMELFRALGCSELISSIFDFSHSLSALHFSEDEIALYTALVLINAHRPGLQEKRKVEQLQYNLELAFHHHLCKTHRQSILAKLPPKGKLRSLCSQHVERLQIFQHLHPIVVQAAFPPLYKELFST
Description: RORγ GAL4 reporter gene assay. Type of assay: cell-based. To be noted: inhibition of RORγ activity, GAL4-RORγ-LBD luciferase reporter in 293FT cells, overnight incubation; read-out: mean pIC50 (converted). Here is the method:
Example inhibitors 1-166 were tested for their ability to inhibit RORγ activity in a RORγ GAL4 reporter gene assay. The assay procedure and results are described below.
RORγ GAL4 Reporter Gene Assay Description
A GAL4 one-hybrid reporter system employing luciferase readout was established to determine inhibition of RORγ in 293FT cells. The RORγ ligand-binding domain (LBD) was fused to the yeast GAL4 DNA binding domain (DBD) and placed under the control of the human cytomegalovirus (CMV) immediate early promoter, using expression vector pFN26A (Promega) and standard recombinant DNA cloning methods. To serve as a control in the assay, a similar vector was generated in which the GAL4-DBD was fused to Herpes simplex virus protein 16 (VP16), a constitutive transcriptional activator.
To monitor the inhibitory effect of compounds on RORγ, a transcriptional reporter construct was used. The pGL4.35 vector (Promega) contains nine copies of the GAL4 Upstream Activator Sequence (UAS). This sequence drives the transcription of the luciferase reporter gene luc2P in response to binding of a fusion protein containing the GAL4 DNA binding domain, as for example expressed by the GAL4-RORγ-LBD and GAL4-VP16 expression vectors described above. To allow a GAL4 fusion protein to drive the expression of the luciferase reporter, the pGL4.35 expression vector and the appropriate GAL4 fusion protein expression vector were bulk transfected in the 293FT cells using standard transfection techniques.
The day after transfection, cells were plated into 96 well plates, test compound was added and the plates were incubated overnight. Subsequently, the firefly luciferase activity was quantified using luciferase detection reagent and luminescence readout.
Detailed Assay Description
293FT cells (Invitrogen) were transfected with a GAL4 fusion protein expression vector (as described above) and the transcriptional reporter construct (pGL4.35, Promega). 60 μL of TransIT-293 transfection reagent (Mirus Bio) was added drop wise to 1500 μl Opti-MEM I Reduced Serum Medium (Invitrogen) and incubated at room temperature (RT) for 5 to 20 minutes. 1500 μL of this reagent mixture was added to 5 μg of GAL4 fusion protein expression vector and 5 μg of the transcriptional reporter construct, and incubated at RT for 20 minutes.
To harvest 293FT cells from a T75 flask, first the culture medium was taken off the cells. Subsequently, the cells were washed with Phosphate Buffered Saline (PBS) (Lonza), after which the PBS was removed. To dissociate the cells, 1 ml of TrypLE Express (Invitrogen) was added to the flask, followed by incubation at RT until the cells visually started to detach. Cells were collected in 5 mL of assay medium (DMEM culture medium (Lonza), 10% dialyzed FBS (Invitrogen) and Pen/Strep (Lonza)) to achieve a single cell suspension. 10×10^6 cells were spun down and re-suspended in 10 mL of assay medium. Subsequently, the cell suspension was added to the transfection mix tube, and then transferred as a whole to a T75 flask (Greiner), followed by overnight (16-24 hours) incubation at 37° C. and 5% CO2.
For compound screening, the cells were harvested (as described above) and counted. 13×10^6 cells were spun down, the supernatant was aspirated and the cells were re-suspended in 17.3 mL of assay medium obtaining a cell suspension of 0.75×10^6 cells/mL. 80 μL of cell suspension (60,000 cells) was plated per well into a white, flat bottom, tissue culture treated, 96 well screening plates (Greiner).
Test compounds were diluted, starting from a 10 mM dimethylsulfoxide (DMSO) stock solution, to serial dilutions in DMSO at 500× the final test concentration. Subsequently, these solutions were diluted to 5× the final test concentration in two 10-fold-dilution steps in assay medium. The final DMSO concentration of the 5× test compound solution was 1%. […]
A general note: Reporter assays use an easily measured gene product as a stand-in for the process of interest.

For `CCCNC(=O)c1ccc(NC(=O)Cc2ccc(S(=O)(=O)CC3CC3)cc2)cc1` [Example 1, 4-[2-(4-cyclopropylmethanesulfonylphenyl)acetamido]-N-propylbenzamide], the IC50 was at most 1000 nM.

With `CCNC(=O)c1ccc(NC(=O)Cc2ccc(S(=O)(=O)CC3CC3)cc2)cc1` [Example 2, 4-[2-(4-cyclopropylmethanesulfonylphenyl)acetamido]-N-ethylbenzamide], the IC50 is at most 1000 nM.

For the molecule `CN(C(=O)c1ccc(NC(=O)Cc2ccc(S(=O)(=O)CC3CC3)cc2)cc1)c1ccccc1` [Example 3, 4-[2-(4-cyclopropylmethanesulfonylphenyl)acetamido]-N-methyl-N-phenylbenzamide], the IC50 was at most 10 nM.

With `CN(Cc1ccccc1)C(=O)c1ccc(NC(=O)Cc2ccc(S(=O)(=O)CC3CC3)cc2)cc1` [Example 5, N-benzyl-4-[2-(4-cyclopropylmethanesulfonylphenyl)acetamido]-N-methylbenzamide], the IC50 was at most 100 nM.

Take `CCCN(C)C(=O)c1ccc(NC(=O)Cc2ccc(S(=O)(=O)CC3CC3)cc2)cc1` [Example 7, 4-[2-(4-cyclopropylmethanesulfonylphenyl)acetamido]-N-methyl-N-propylbenzamide]: the IC50 is at most 1000 nM.

Regarding `CC(C)CN(C)C(=O)c1ccc(NC(=O)Cc2ccc(S(=O)(=O)CC3CC3)cc2)cc1` [Example 8, 4-[2-(4-cyclopropylmethanesulfonylphenyl)acetamido]-N-methyl-N-(2-methylpropyl)benzamide], the IC50 is at most 1000 nM.

Take `CN(CCc1ccccc1)C(=O)c1ccc(NC(=O)Cc2ccc(S(=O)(=O)CC3CC3)cc2)cc1` [Example 10, 4-[2-(4-cyclopropylmethanesulfonylphenyl)acetamido]-N-methyl-N-(2-phenylethyl)benzamide]: the IC50 is at most 100 nM.

As to `CC(C)(C)NC(=O)c1ccc(NC(=O)Cc2ccc(S(=O)(=O)CC3CC3)cc2)cc1` [Example 11, N-tert-butyl-4-[2-(4-cyclopropylmethanesulfonylphenyl)acetamido]benzamide], the IC50 is at most 1000 nM.

On to `O=C(Cc1ccc(S(=O)(=O)CC2CC2)cc1)Nc1ccc(C(=O)N(Cc2ccccc2)Cc2ccccc2)cc1` [Example 12, N,N-dibenzyl-4-[2-(4-cyclopropylmethanesulfonylphenyl)acetamido]benzamide], for which the IC50 is at most 100 nM.

For `O=C(Cc1ccc(S(=O)(=O)CC2CC2)cc1)Nc1ccc(C(=O)NCc2ccccc2)cc1` [Example 13, N-benzyl-4-[2-(4-cyclopropylmethanesulfonylphenyl)acetamido]benzamide], the IC50 is at most 1000 nM.

For `CC(NC(=O)c1ccc(NC(=O)Cc2ccc(S(=O)(=O)CC3CC3)cc2)cc1)c1ccccc1` (stereo not drawn) [Example 14, 4-[2-(4-cyclopropylmethanesulfonylphenyl)acetamido]-N-(1-phenylethyl)benzamide], the IC50 is at most 100 nM.

On to `CC(C)CN(CC(C)C)C(=O)c1ccc(NC(=O)Cc2ccc(S(=O)(=O)CC3CC3)cc2)cc1` [Example 15, 4-[2-(4-cyclopropylmethanesulfonylphenyl)acetamido]-N,N-bis(2-methylpropyl)benzamide], for which the IC50 was at most 100 nM.

For `CCN(C(=O)c1ccc(NC(=O)Cc2ccc(S(=O)(=O)CC3CC3)cc2)cc1)c1ccccc1` [Example 16, 4-[2-(4-cyclopropylmethanesulfonylphenyl)acetamido]-N-ethyl-N-phenylbenzamide], the IC50 is at most 10 nM.

Regarding `CN(C(=O)c1ccc(NC(=O)Cc2ccc(S(=O)(=O)CC3CC3)cc2)cc1)c1ccccn1` [Example 17, 4-[2-(4-cyclopropylmethanesulfonylphenyl)acetamido]-N-methyl-N-(pyridin-2-yl)benzamide], the IC50 was at most 100 nM.

Turning to `C[C@@H](c1ccccc1)N(C)C(=O)c1ccc(NC(=O)Cc2ccc(S(=O)(=O)CC3CC3)cc2)cc1` [Example 18, 4-[2-(4-cyclopropylmethanesulfonylphenyl)acetamido]-N-methyl-N-[(1S)-1-phenylethyl]benzamide], the IC50 is at most 100 nM.

As to `CCCN(C(=O)c1ccc(NC(=O)Cc2ccc(S(=O)(=O)CC3CC3)cc2)cc1)c1ccccc1` [Example 19, 4-[2-(4-cyclopropylmethanesulfonylphenyl)acetamido]-N-phenyl-N-propylbenzamide], the IC50 is at most 10 nM.

For `CCCN(C(=O)c1ccc(NC(=O)Cc2ccc(S(=O)(=O)CC3CC3)cc2)cc1)c1cccnc1` [Example 20, 4-[2-(4-cyclopropylmethanesulfonylphenyl)acetamido]-N-propyl-N-(pyridin-3-yl)benzamide], the IC50 is at most 10 nM.

Take `CCCN(Cc1ccccc1)C(=O)c1ccc(NC(=O)Cc2ccc(S(=O)(=O)CC3CC3)cc2)cc1` [Example 21, N-benzyl-4-[2-(4-cyclopropylmethanesulfonylphenyl)acetamido]-N-propylbenzamide]: the IC50 was at most 10 nM.

For the molecule `CCCN(C(=O)c1ccc(NC(=O)Cc2ccc(S(=O)(=O)NC3CC3)cc2)cc1)c1ccccc1` [Example 22, 4-{2-[4-(cyclopropylsulfamoyl)phenyl]acetamido}-N-phenyl-N-propylbenzamide], the IC50 was at most 100 nM.

As for `CCCN(Cc1ccccc1)C(=O)c1ccc(NC(=O)Cc2ccc(S(=O)(=O)NC3CC3)cc2)cc1` [Example 23, N-benzyl-4-{2-[4-(cyclopropylsulfamoyl)phenyl]acetamido}-N-propylbenzamide], the IC50 is at most 1000 nM.

As to `O=C(Cc1ccc(S(=O)(=O)NC2CC2)cc1)Nc1ccc(C(=O)N(Cc2ccccc2)Cc2ccccc2)cc1` [Example 24, N,N-dibenzyl-4-{2-[4-(cyclopropylsulfamoyl)phenyl]acetamido}benzamide], the IC50 is at most 100 nM.

In the case of `CCOC(=O)C1CCCN(C(=O)c2ccc(NC(=O)Cc3ccc(S(=O)(=O)CC4CC4)cc3)cc2)C1` (stereo not drawn) [Example 25, ethyl 1-{4-[2-(4-cyclopropylmethanesulfonylphenyl)acetamido]benzoyl}piperidine-3-carboxylate], the IC50 was at most 1000 nM.

`CN(C(=O)c1ccc(NC(=O)Cc2ccc(S(=O)(=O)CC3CC3)cc2)cc1)C(C)(C)C` [Example 26, N-tert-butyl-4-[2-(4-cyclopropylmethanesulfonylphenyl)acetamido]-N-methylbenzamide]: the IC50 was at most 1000 nM.

Turning to `O=C(Cc1ccc(S(=O)(=O)CC2CC2)cc1)Nc1ccc(C(=O)N(C2CCC2)C2CCC2)cc1` [Example 27, N,N-dicyclobutyl-4-[2-(4-cyclopropylmethanesulfonylphenyl)acetamido]benzamide], the IC50 was at most 100 nM.

As for `CC1CCCCN1C(=O)c1ccc(NC(=O)Cc2ccc(S(=O)(=O)CC3CC3)cc2)cc1` (stereo not drawn) [Example 28, 2-(4-cyclopropylmethanesulfonylphenyl)-N-[4-(2-methylpiperidine-1-carbonyl)phenyl]acetamide], the IC50 is at most 1000 nM.

Regarding `CCN(C(=O)c1ccc(NC(=O)Cc2ccc(S(=O)(=O)CC3CC3)cc2)cc1)c1ccc(C)cc1` [Example 29, 4-[2-(4-cyclopropylmethanesulfonylphenyl)acetamido]-N-ethyl-N-(4-methylphenyl)benzamide], the IC50 is at most 10 nM.

As to `CCN(C(=O)c1ccc(NC(=O)Cc2ccc(S(=O)(=O)CC3CC3)cc2)cc1)c1cccc(C(=O)OC)c1` [Example 30, methyl 3-{N-ethyl-4-[2-(4-cyclopropylmethanesulfonylphenyl)acetamido]benzamido}benzoate], the IC50 was at most 100 nM.
